{
  "source": "patent US20150265558A1",
  "about": "“TREATMENT OF ADHD” (BTG International Limited, priority 2004, published 2015)",
  "key": {"[1]": {"test_system": "Fisher rats (frontal cortex, hippocampus, striatum, reticular formation)", "test": "Tele-Stereo-EEG: electrical power of four brain areas in freely-moving rats after single i.p. dose", "assay_type": "in vivo, rat", "from_the_text": "Analysis of brain field potentials (“Tele-Stereo-EEG”) has been proven to be a very sensitive tool for the characterization of drug effects on the central nervous system (Dimpfel et al., 1986). After administration of a centrally active drug, quantitative changes in the brain field potentials can be considered as a characteristic fingerprint of that particular drug. “Fingerprints” of more than 100 compounds have been obtained including 8 established drug categories, e.g. stimulants, sedatives, hallucinogenics, tranquilizers, analgesics, antidepressants, neuroleptics, and narcotics. Different dosages of the same drug cause quantitative changes in electrical power. […] Direct comparison with specific reference drugs, or by discriminant analysis with reference to an extensive fingerprint database, permits the detection of any possible similarities with established drugs. In general, “fingerprints” show prominent differences for drugs prescribed for different indications and are similar for drugs with the same indication (Dimpfel, 2003). Furthermore, the pattern of EEG changes in the rat is a useful tool in predicting possible changes in the EEG power spectrum in humans.\nAdult Fisher rats (4-6 month of age and day—night converted, bodyweight approximately 400 g) were implanted with 4 bipolar concentric steel electrodes using a stereotaxic surgical procedure. According to the coordinates of Paxinos and Watson (1982), all four electrodes were placed 3 mm lateral within the left hemisphere. Anterior coordinates were 12.2, 5.7, 9.7 and 3.7 mm for frontal cortex, hippocampus, striatum and reticular formation, respectively. A baseplate carrying the electrodes and a 5-pin-plug was fixed to the skull by dental cement attached to 3 steel screws fixed into the skull. Animals were given two weeks for recovery from the surgical procedure.\nEEG signals were recorded from frontal cortex, hippocampus, striatum and reticular formation and were amplified and processed as described by Dimpfel et al. (1986). After automatic artifact rejection, signals were collected in sweeps of 4 s duration and submitted to Fast Fourier transformation. The resulting electrical power spectra were divided into 6 frequency ranges: delta (0.8-4.5 Hz); theta (4.75-6.75 Hz); alpha1 (7.00-9.50 Hz); alpha2 (9.75-12.50 Hz); beta (12.75-18.50 Hz); beta2 (18.75-35.00 Hz). […] In an off-line procedure spectra were averaged to give 15 minute or longer periods for further statistical analysis.\nFour doses of KTX 0101 (sodium (R)-3-hydroxybuytrate: 100, 300, 600 and 1000 mg/kg body weight) (supplied by Solvias AG, CH 4002 Basel, Switzerland, batch No: SO-1058.047.1.120) and a vehicle control (0.9% w/v saline) were administered intraperitoneally to a group of 12 animals using a crossover design with at least 3 drug holidays in between the applications. After a pre-drug period of 45 minutes for baseline recording, drug effects were observed continuously for 300 minutes. Changes of electrical power (uV2/W) are expressed as percentage of the 45 minute pre-drug values. Multivariate statistics were calculated according to Ahrens and Läuter (1974)."}, "[2]": {"test": "Plasma determination of (R)-3-hydroxybutyrate after i.p. injection", "assay_type": "in vivo, Sprague-Dawley rats", "procedure": "(§1) One hundred and seventy-one male Sprague-Dawley rats (weight range 200-250 g) housed on a standard […] were used. Animals had free access to a standard pelleted rat diet and tap water at all times. KTX 0101 (sodium (R)-3-hydroxybuytrate; 100, 300, 600 and 1000 mg/kg body weight) supplied by Sigma (H6501, Lot 111K2618) was administered by intraperitoneal injection. Control animals received the appropriate 0.9% saline vehicle via the same route. Animals were killed by CO2 asphyxiation 0 h, 0.5 h, 1.0 h or 2.0 h after dosing and a terminal blood sample was collected by cardiac puncture. Blood was taken in lithium heparinised tubes and kept on ice prior to centrifugation to yield the plasma samples for analysis.\nCommercial clinical assay kits for the determination of D-β-hydroxybutyrate were obtained from Randox Laboratories (Antrim, UK). The kit quantified NADH via the activity of β-hydroxybutyrate dehydrogenase measured as an increase in OD340 nm. An alkaline pH is necessary to drive the reaction equilibrium towards the production of NADH and acetoacetate.\nThis spectrophotometric assay was modified for application to a 96 well microplate format. The reaction rate was then determined from the increase in OD340 nm over a 1 minute time course, after allowing a necessary period for the reaction rate to settle."}, "[3]": {"test": "Plasma determination of acetoacetate after i.p. injection", "assay_type": "in vivo, Sprague-Dawley rats", "settings": "30 min after dosing", "procedure": "as §1\nThe assay developed for the determination of acetoacetate was based on previously published clinical assays (Li et al, 1980; McMurray et al, 1984). A different assay buffer was prepared (0.1M Na2PO4 adjusted to pH 7.0 with HCl) in order to shift the equilibrium of the reaction to production of […] and NAD+, Other modifications included the additional use of sodium oxalate at a final assay concentration of 20 mM to inhibit lactate dehydrogenase (LDH) present in the plasma samples. […]\nAcetoacetate was measured via the reduction in OD340 nm over a 1 minute period after allowing for the reaction rate to settle."}, "freely moving rat": {"test_system": "freely moving rat", "settings": "cited from earlier work; for effect on alpha2 frequencies: Dimpfel et al., 1987"}},
  "data": [
    {"smiles": "C[C@@H](O)CC(=O)[O-].[Na+]", "note": "[KTX 0101, sodium (R)-3-hydroxybuytrate]", "values": [
      {"measurement": "duration of EEG effects", "setting": "[1]; 100 mg/kg i.p.", "value": "1 to 2", "unit": "h"},
      {"measurement": "statistical significance of EEG changes", "setting": "[1]; 100 mg/kg i.p.", "value": "not statistically significant"},
      {"measurement": "pattern of change in EEG electrical power", "setting": "[1]; 100 mg/kg i.p., all regions", "value": "decrease of electrical power mainly with regard to alpha2"},
      {"measurement": "duration of EEG pattern of changes", "setting": "[1]; 300 mg/kg ip", "value": 2, "unit": "h"},
      {"measurement": "pattern of change in EEG electrical power", "setting": "[1]; 300 mg/kg ip", "value": "decreases in alpha2 power throughout all brain regions"},
      {"measurement": "statistical significance of EEG changes", "setting": "[1]; 300 mg/kg ip", "value": "only statistically significant in the reticular formation"},
      {"measurement": "duration of EEG effects", "setting": "[1]; 600 mg/kg ip, generally, except reticular formation", "value": 2, "unit": "h"},
      {"measurement": "duration of decreases in power in the reticular formation", "setting": "[1]; 600 mg/kg ip, reticular formation", "value": "persisted throughout the third hour"},
      {"measurement": "statistical significance of EEG changes", "setting": "[1]; 600 mg/kg ip, incl. first hour in striatum and all 24 variables overall", "value": "statistically significant"},
      {"measurement": "duration of decreases of power", "setting": "[1]; 1000 mg/kg", "value": "lasting into the third hour"},
      {"measurement": "pattern of change in EEG electrical power", "setting": "[1]; 1000 mg/kg", "value": "more prominent decreases of power"},
      {"measurement": "duration of decreases of power in the reticular formation", "setting": "[1]; 1000 mg/kg, reticular formation, total experimental time", "value": 5, "unit": "h"},
      {"measurement": "statistical significance of EEG changes", "setting": "[1]; 1000 mg/kg, even for the 4th hour within the reticular formation", "value": "statistically significant"},
      {"measurement": "brain regions with significant EEG changes", "setting": "[1]; 2 highest doses (600 and 1000 mg/kg)", "value": "significant changes were also observed in the frontal cortex, hippocampus and striatum"},
      {"measurement": "similarity of qEEG fingerprint to drug classes by discriminant analysis", "setting": "[1]; 24 variables, 20th to 50th min after single-dose application", "value": "close proximity to the dopaminergic psychostimulants, d-amphetamine and cocaine"},
      {"measurement": "EEG frequencies affected", "setting": "[1]; 100 to 1000 mg/kg i.p.", "value": "all frequencies, except for the beta2 range"},
      {"measurement": "period of greatest changes in EEG patterns", "setting": "[1]; after injection", "value": "5 to 65", "unit": "min"},
      {"measurement": "EEG changes, summary", "setting": "[1]; dose range of 300 to 1000 mg/kg ip", "value": "clear, dose- and time-dependent statistically significant changes"},
      {"measurement": "plasma concentration of (R)-3-hydroxybutyrate", "setting": "[2]; 100, 300, 600 and 1000 mg/kg ip", "value": "clear dose-dependent increases"},
      {"measurement": "time of highest elevation in plasma (R)-3-hydroxybutyrate", "setting": "[2]; 100-1000 mg/kg ip, first sample", "value": 30, "unit": "min"},
      {"measurement": "time to return of plasma (R)-3-hydroxybutyrate to control values", "setting": "[2]; after injection", "value": "≤ 1", "unit": "h"},
      {"measurement": "plasma concentration of acetoacetate", "setting": "[3]; 600 mg/kg", "value": "significantly increased"},
      {"measurement": "plasma concentration of acetoacetate", "setting": "[3]; 1000 mg/kg", "value": "significantly increased"}
    ]},
    {"smiles": "N[C@@H](Cc1ccc(O)c(O)c1)C(=O)O", "note": "[L-DOPA]", "values": [
      {"measurement": "effect on alpha2 frequencies", "setting": "freely moving rat", "value": "decrease alpha2 frequencies"}
    ]},
    {"smiles": "Oc1cc2c(cc1O)C(c1ccccc1)CNCC2", "note": "(stereo not drawn) [SKF 38393]", "values": [
      {"measurement": "effect on alpha2 frequencies", "setting": "freely moving rat", "value": "decrease alpha2 frequencies"}
    ]},
    {"smiles": "CC(N)Cc1ccccc1", "note": "(stereo not drawn) [amphetamine]", "values": [
      {"measurement": "effect on alpha2 frequencies", "setting": "freely moving rat", "value": "decrease alpha2 frequencies"}
    ]},
    {"smiles": "Clc1cccc(Cl)c1N=C1NCCN1", "note": "[clonidine]", "values": [
      {"measurement": "effect on theta activity", "setting": "freely moving rat; Dimpfel and Schober, 2001", "value": "increase"}
    ]}
  ]
}
